Experimental data: ChEMBL document CHEMBL5729116, “hTRPV1 chemical agents” (2022)

Target: Transient receptor potential cation channel subfamily V member 1 (Homo sapiens, UniProt Q8NER1)
Assay: RTX Competition Binding Assay.: Binding studies with [3H]RTX were carried out as follows. The binding assay mixtures were prepared in 1.5 ml centrifuge tubes and consisted of a fixed concentration (approximately 2 nM) of [3H]RTX (37 Ci/mmol specific activity, PerkinElmer Life Sciences), various concentrations of competing ligands, and […] of membranes from induced CHO-hTRPV1 expressing cells (approximately 1-3×10^6 cells) in Dulbecco's phosphate buffered saline (DPBS, with Ca2+ & Mg2+) for a total volume of 350 μl. The assay mix contained bovine serum albumin at a final concentration of 0.25 mg/ml (Cohn fraction V; Sigma-Aldrich, St. Louis, Mo.). In each set of experiments, nonspecific binding were determined in the presence of 200 nM non-radioactive RTX. The binding reaction was initiated by placing the assay mixture in a 37° C. shaking water bath for 60 minutes (−30 rpm). The assay mixture was then chilled on ice for 2-3 min before adding 100 μl of α1-acid glycoprotein (2 mg/ml; Sigma-Aldrich) and mixed thoroughly. The tubes were kept on ice for an additional 10 min. The bound and free ligands were then separated by centrifugation (12,200 rpm for 15 minutes) in a Beckman Coulter centrifuge Allegra 21R. 200 μl of supernatant was collected for determination of free ligand. The remainder was removed by aspiration.

Transient receptor potential cation channel subfamily V member 1, sequence (Q8NER1 whole entry): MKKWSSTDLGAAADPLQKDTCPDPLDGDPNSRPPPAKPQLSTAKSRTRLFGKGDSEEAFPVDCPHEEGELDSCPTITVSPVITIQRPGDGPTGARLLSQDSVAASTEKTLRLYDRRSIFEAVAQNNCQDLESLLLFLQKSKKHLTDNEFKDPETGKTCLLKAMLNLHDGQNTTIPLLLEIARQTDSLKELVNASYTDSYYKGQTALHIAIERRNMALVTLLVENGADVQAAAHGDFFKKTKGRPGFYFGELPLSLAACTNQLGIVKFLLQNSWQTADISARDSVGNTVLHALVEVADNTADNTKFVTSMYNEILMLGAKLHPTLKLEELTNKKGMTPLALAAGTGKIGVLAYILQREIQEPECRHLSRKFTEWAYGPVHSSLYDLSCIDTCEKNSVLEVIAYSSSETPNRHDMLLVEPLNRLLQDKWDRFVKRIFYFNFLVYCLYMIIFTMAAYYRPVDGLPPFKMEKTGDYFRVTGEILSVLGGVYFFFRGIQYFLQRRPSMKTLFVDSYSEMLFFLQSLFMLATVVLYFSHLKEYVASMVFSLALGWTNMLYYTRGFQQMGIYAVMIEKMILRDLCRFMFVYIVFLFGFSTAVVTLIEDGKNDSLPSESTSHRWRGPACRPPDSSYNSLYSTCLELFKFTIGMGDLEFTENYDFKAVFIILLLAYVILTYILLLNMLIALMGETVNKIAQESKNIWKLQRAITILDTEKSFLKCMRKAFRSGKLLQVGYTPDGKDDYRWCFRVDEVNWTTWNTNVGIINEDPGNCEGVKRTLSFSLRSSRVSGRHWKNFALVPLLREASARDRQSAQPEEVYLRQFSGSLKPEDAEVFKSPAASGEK

## O=C(Nc1cccc(C(F)(F)F)c1)Nc1ccc([N+](=O)[O-])cc1Cl
  Ki: 2.57 µM
